Values quoted from earlier work, collected in patent US20090029952A1, “UNIQUE COMBINATION OF […] ACID, ETHYLENEDIAMINE DIHYDROIODIDE (EDDI), AND BUFFER FOR USE IN ANIMAL DRINKING WATER” (priority 2007, published 2009).

maximum solubility of aspirin alone in water (alone in water, or in the presence of sodium acetate or sodium diacetate): 0.1 % by weight | solubility in water (water, from chemical handbooks): 0.1%
Structure (SMILES): CC(=O)Oc1ccccc1C(=O)O [aspirin, acetylsalicylic acid]
